How the values were obtained:
diabetic rats [1] = assay: CIN model, Example 5: INO-1001 alone and with NAC in diabetic rats; assay type: in vivo, rat; conditions: diabetic rats + Iomeprol, NAC 30 mg/kg i.v., INO-1001 10 mg/kg ip, or both, at −30 min
Method: (§1) Male Wistar rats (150-200 g; Harlan Nossanr) were housed in a controlled environment and provided with standard rodent chow and water. Diabetes was induced after 12 h of fasting. The animals received a single 60 mg/kg intravenous (i.v.) injection of streptozotocin (Sigma, St. Louis, Mo.) in 10 mM sodium citrate buffer, pH 4.5 (see figure). Control non-diabetic animals were fasted and received citrate buffer alone. After 24 hours, animals with blood glucose levels greater than 250 mg/dl were considered diabetic. The diabetic state was confirmed by evaluating the blood glucose levels. Ten days following the induction of diabetes rats were anesthetized with 90 mg/kg ketamine i.m. and 10 mg/kg xylazine i.m. and were treated with the contrast agent iomeprol (10 mL/kg injected via the lateral tail vein) or with 0.9% normal saline. The contrast agent used was the low osmolar non-ionic monomer iomeprol (Iomeron, 400 mgI mL-1; Bracco SpA, Milan, Italy) with an osmolality of 726±34 mosmol/kg H2O.
GROUP 1: Diabetic rats only+Placebo (i.v.). GROUP 2: Diabetic rats+Iomeprol+Placebo (i.v.) given at −30 min. GROUP 3: Diabetic rats+Iomeprol+NAC (30 mg/kg, i.v.) given at −30 min. GROUP 4: Diabetic rats+Iomeprol+INO-1001 (10 mg/kg, ip) given at −30 min. GROUP 5: Diabetic rats+Iomeprol+NAC (30 mg/kg, i.v.)+INO-1001 (10 mg/kg, ip) given at −30 min.
(§2) Blood samples were collected via the lateral tail vein into S1/3 tubes containing serum gel at 24 hours. The samples were centrifuged (6000 r.p.m. for 3 min) to separate plasma. All plasma samples were analyzed for biochemical parameters within 24 hours after collection. Plasma and urine concentrations of creatinine were measured as indicators of impaired glomerular function. Creatinine clearance was calculated using the following formula (=UV/P), where U refers to Creatinine concentration in urine, V to urine volume/min and P to serum creatinine. Plasma and urine concentrations of NGAL (neutrophil gelatinase associated lipocalin) levels and urine αGST (alpha glutathione S-transferase) and NGAL levels were evaluated.
Protein concentration in urine was determined by Bio-Rad DC Protein Assay (BioRad, Richmond Calif.). The Bio-Rad DC protein assay is a colorimetric assay for protein concentration. The reaction is similar to the well-documented Lowry assay (Lowry et al., Protein measurement with the Folin phenol reagent, J Biol Chem 193, 265-275 (1951). The Bio-Rad DC protein assay requires only a single 15-minute incubation, and absorbance is stable for a least 2 hours. The amount of protein is expressed in mg/ml.

diabetic rats [2] = assay: CIN model, Example 3: M40403 alone and with NAC in diabetic rats; assay type: in vivo, rat; conditions: diabetic rats + Iomeprol, 24 hours; M40403 0.5 mg/kg i.v. alone or + NAC 3 mg/kg i.v., at −30 min
Method: as §1, with “12 hours” for “12 h”
as §2, with “gel at 0 and 24 hours.” for “gel at 24 hours.”, “of NGAL levels were” for “of NGAL (neutrophil gelatinase associated lipocalin) levels and urine αGST (alpha glutathione S-transferase) and NGAL levels were”

[3] = Iomeron, 400 mgI mL-1; cited from earlier work

## O=c1[nH]cnc2c1ncn2[C@@H]1O[C@H](CO)[C@@H](O)[C@H]1O [INO-1001]
Diabetic rats [1]; 24 h
  plasma creatinine: significant reductions
Diabetic rats [1]; 24 hours
  plasma NGAL concentration: significant reductions
  total protein concentration in the urine: significant reductions
  urine NGAL concentration: significant reductions
  urine αGST: significant reductions

## [Cl-].[Cl-].[Mn+2].c1cc2nc(c1)CN[C@@H]1CCCC[C@H]1NCCN[C@@H]1CCCC[C@H]1NC2 [Metalloporphyrin M40403]
Diabetic rats [2]
  plasma NGAL concentration: significant reduction
  plasma Na+: significant reductions
  plasma concentrations of K+: significant increase
  plasma creatinine: significant reductions
  total protein concentrations in the urine: significantly reduced
  urine NGAL concentration: significant reduction

## CN(C(=O)CO)c1c(I)c(C(=O)NCC(O)CO)c(I)c(C(=O)NCC(O)CO)c1I (stereo not drawn) [iomeprol]
[3]
  osmolality: 726±34 mosmol/kg H2O
